These results are taken from US8809529B2, “Imidazo[1,2-α]pyrazine derivatives” (Promega Corporation, priority 2010, dated 2014).

Data set [1] is described as follows: Luminescence screen of OgLuc variants in lysed E. coli cells. The settings on record: QC27-9a versus C1+A4E. The class given is biochemical. As for the experimental part: Resulting libraries were expressed in E. coli and primarily screened with a robotic system for OgLuc variants having increased light output (i.e., increased luminescence, increased brightness, or increased light emission) or a change in relative specificity compared to the corresponding starting OgLuc variant. The robotic primary screen was conducted as follows: individual colonies from the generated library were used to inoculate minimal media in 96-well plates and grown at 37° C. for 17 to 20 hrs (“M1 culture”). The M1 culture was diluted 1:20 with fresh minimal media and grown at 37° C. for 17-20 hrs (“M2 culture”). […] The use of the different induction media was determined based on the luminescence generated between C1+A4E and the novel coelenterazines, i.e., the induction media containing rhamnose and glucose were used with novel coelenterazines that generated less luminescence with C1+A4E compared to the other novel coelenterazines with C1+A4E.
Luminescence measurements for each variant were taken 3 min after reagent addition and relative luminescence unit (RLU) values were normalized to an average of 8 control wells of the corresponding starting OgLuc variant for each plate. […]

For data set [2], the system named is HEK293 cells. The data set is described as follows: Toxicity of coelenterazines in HEK293 cells (CELLTITER-GLO). The settings on record: 24 hrs after compound addition. Background: ATP-based viability assays read luminescence as a measure of living cells.
For data set [3], the system named is HEK293 cells. The settings on record: human, 24 h.
Another data set addresses OgLuc variant L27V (Oplophorus gracilirostris, UniProt Q9GV45, A31E/A60N/A81I/F95D/I117V/K70R/L54V/L99Q/M102K/N193R/P142E/Q151K/Q38R/Q45L/V71I/Y165I). Conditions: approximately 20 pM L27V, pH 6, 3 min at 22° C. The procedure: To determine the Km of PBI-3939, the OgLuc variant L27V (described in Example 26) was purified via HALOTAG® fusion using the HALOTAG® Protein Purification System according to the manufacturer's instructions and diluted in DMEM without Phenol Red and 0.1% PRIONEX®. 50 μL assay buffer (100 mM MES pH 6, 35 mM Thiourea, 0.5% TERGITOL® NP-9 (v/v), 1 mM CDTA, 2 mM DTT and 150 mM KCl) with varying amounts of PBI-3939 was added to 50 μL diluted enzyme (approximately 20 pM final enzyme concentration), and luminescence measured at 3 min at 22° C.

A further data set has as its target T1, L27V02 enzyme (Oplophorus gracilirostris, UniProt Q9GV45, A31E/A60N/A81I/F95D/I117V/K70R/L54V/L99Q/M102K/N193R/P142E/Q151K/Q38R/Q45L/V71I/Y165I).
T1 construct: The N-terminus of the OgLuc variant L27V is methionine, valine and phenylalanine, i.e., MVF; made in house
The data set is described as follows: Luminescence of compounds with purified L27V02 enzyme. Conditions: 20 μM compound, 36 pM L27V02, pH 7, 3 min. The data set is classed as biochemical. As for the experimental part:
Compounds PBI-4525, PBI-4540 and PBI-4541 were screened for their ability to detect luminescence. […] The assay reagent was then mixed with 36 pM purified L27V02 enzyme (described in Example 25B), in DMEM without Phenol Red and 0.1% PRIONEX®. As a control, assay buffer with 20 μM PBI-3939 or PBI-4528 was used. Luminescence was measured as previously described 3 min after the assay reagent was added to the enzyme mixture.

Another data set addresses T2, OgLuc variant 9B8 opt (Oplophorus gracilirostris, UniProt Q9GV45, A31E/A60K/A81I/F95Y/I117V/L99Q/M102K/N193R/P142E/Q151K/Q38R/Q45L/V71I/Y165I).
T2 construct: made in house; host or cells: E. coli (crude lysate)
The data set is described as follows: Multiplex assay with red click beetle luciferase and 9B8 opt (modified DUAL-GLO). The data set is classed as biochemical. As for the experimental part:
A. Lysates of E. coli expressing the variant 9B8 opt were prepared as previously described in Example 27 and diluted 1000-fold in DMEM without phenol red+0.1% PRIONEX®. Luminescence from a sample containing 6.3 μg/mL of purified red click beetle luciferase and E. coli lysate expressing the variant 9B8 opt was detected using a modified DUAL-GLO® Luciferase Assay System (Promega Corp.). DUAL-GLO® STOP&GLO® Reagent containing 20 μM coelenterazine-h and DUAL-GLO® STOP&GLO® Reagent containing 20 μM PBI 3939 were used, according to the manufacturer's protocol, to detect the red click beetle luciferase and OgLuc variant 9B8 luciferase from a single sample. Three replicates were performed.
Luminescence was detected on a Turner MODULUS™ luminometer. […] The standard deviation (“+/−”) and coefficient of variance (“CV”) are also shown. A “no coelenterazine” control was performed to illustrate the amount of quenching of the red click beetle signal by the DUAL-GLO® STOP&GLO® Reagent of the DUAL-GLO® Luciferase Assay System in the absence of coelenterazine. The “no coelenterazine” control yielded a 349-fold quench.

The test system of data set [4] is HEK293 cells. The data set is described as follows: Live cell luminescence in HEK293 cells. Conditions: HEK293 cells expressing 9B8 opt, 60 μM. The data set is classed as cell-based, human. As for the experimental part: A. The use of OgLuc variants and PBI-3939 in live cells was examined. HEK293 cells were plated in 96-well plates at 15,000 cells/well and grown overnight, at 37° C. The following day, the cells were transiently transfected using TRANSIT®-LT1 in 3 replicates with 100 ng of hRL or 9B8 opt in pF4Ag and grown overnight at 37° C. The following day the growth media was removed and replaced with media containing 60 μM VIVIREN™ Live Cell Substrate (Promega Corp.), 60 μM ENDUREN™ Live Cell Substrate (Promega Corp.), or 60 μM PBI-3939 for both hRL and 9B8 opt transfected cells. Non-transfected cells were used as background control. The plate was incubated at 37° C. during the course of one day and periodically measured on a TECAN® GENIOS™ Pro luminometer, i.e., 11 times over the course of 24 hrs.

For a further data set, the target named is T3, OgLuc (Oplophorus gracilirostris, UniProt Q9GV45, A31E/A60K/A81I/F95Y/I117V/L99Q/M102K/N193R/P142E/Q151K/Q38R/Q45L/V71I/Y165I).
T3 construct: 10 μL of purified 9B8, L27V or firefly luciferase (Luc2) enzyme; made in house
The data set is described as follows: LOPAC library inhibition screen. The settings on record: preliminary LOPAC screen with 9B8 variant, 20 μM substrate. The data set is classed as biochemical. The procedure: To determine the susceptibility of the OgLuc variants to off-target interactions, the activity of the 9B8 and L27V variants was screened against a LOPAC (library of pharmacologically active compounds) library. A LOPAC 1280 library (Sigma) was prepared by diluting the compounds to 1 mM in DMSO. On the day of the assay, the compounds were diluted to 20 μM in 1×PBS, and 10 μL transferred to a 96-well, white plate. To each well, 10 μL of purified 9B8, L27V or firefly luciferase (Luc2) enzyme diluted 10^−4 in Glo Lysis Buffer (Promega Corp.) was added and incubated at room temperature for 2 min. […] For assaying firefly luciferase, the BRIGHT-GLO™ Assay reagent (Promega Corp.) was used according to the manufacturer's protocol. As a negative control, 8 wells of each plate contained 1×PBS+2% glycerol. As a positive control, 8 wells of each plate contained 2 mM Suramin in 2% DMSO or 2 mM luciferase inhibitor 1 in 2% DMSO (Calbiochem).

Data set [5] concerns HEK293 cells. The data set is described as follows: Luminescence of luciferases in lysed HEK293 cells (codon optimization). The class given is cell-based, human. As for the experimental part:
Codon optimized versions of IV (“IV opt” (SEQ ID NO: 22) and “IV optB” (SEQ ID NO: 23)) and 9B8 (“9B8 opt” (SEQ ID NO: 24) and “9B8 optB” (SEQ ID NO: 25)) were generated and cloned into pF4Ag by methods known in the art. HEK293 cells were plated in 96-well plates at 15,000 cells/well and grown overnight at 37° C. The following day, the cells were transiently transfected in 6 well replicates using TRANSIT®-LT1 Transfection Reagent (Minis Bio) with 100 ng of plasmid DNA encoding the codon optimized versions in pF4Ag and grown overnight at 37° C. HEK293 cells were also transfected with either pGL4.13 (Luc2/SV40) (Paguio et al., “pGL4 Vectors: A New Generation of Luciferase Reporter Vectors” Promega Notes, 89:7-10 (2005)) or pGL4.73 (hRL/SV40) (Id.) to normalize for differences in transfection efficiency. Ten ng/transfection or 10% of the total DNA transfected was used.
The OgLuc variants had higher luminescence compared to Luc2 and hRL.

Like-named read-outs stand apart in the source and are kept apart here.

T2 sequence (Q9GV45 other isoform, or with tags, fused parts or gaps with the stated changes): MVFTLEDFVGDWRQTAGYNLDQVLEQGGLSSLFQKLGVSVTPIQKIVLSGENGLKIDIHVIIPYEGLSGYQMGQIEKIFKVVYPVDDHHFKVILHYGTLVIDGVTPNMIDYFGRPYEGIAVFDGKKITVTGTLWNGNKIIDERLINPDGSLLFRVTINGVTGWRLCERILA
T1 sequence (Q9GV45 28-196 with tags or gaps with the stated changes limits assumed, one chain of several): as the sequence (Q9GV45 other isoform, or with tags, fused parts or gaps with the stated changes) above, with L29V, K35N, K45R, Y70D counted along it
T3 sequence (Q9GV45 other isoform, or with tags, fused parts or gaps with the stated changes): as the sequence (Q9GV45 other isoform, or with tags, fused parts or gaps with the stated changes) above

As to `CC(C)c1[nH]c(-c2ccccc2)cn2c(=O)c(Cc3ccc(O)cc3)nc1-2` [PBI-3841], the “Change in relative specificity (novel coelenterazine/native coelenterazine)” value in data set [1] is on record as 350,000X. The “Viability (normalized to vehicle (DMSO) control) (%)” value with HEK293 cells [2] is on record as 100%.
In the case of `O=c1c(Cc2ccc(O)cc2)nc2c(C3CC3)[nH]c(-c3ccccc3)cn1-2` [PBI-3897, 8-cyclopropyl-2-(4-hydroxybenzyl)-6-phenylimidazo[1,2-a]pyrazin-3(7H)-one], the “Change in relative specificity (novel coelenterazine/native coelenterazine)” value in data set [1] is recorded as 80,000X. In the data set with HEK293 cells [3], the “Viability (normalized to vehicle (DMSO) control) (%)” value was 100%.
For orientation: Km means the concentration of substrate that gives half-maximal velocity. `O=c1c(Cc2ccco2)nc2c(Cc3ccccc3)[nH]c(-c3ccccc3)cn1-2` [PBI-3939, 8-benzyl-2-(furan-2-ylmethyl)-6-phenylimidazo[1,2-a]pyrazin-3(7H)-one]: the “Stability (pH 8) (T90 in hrs)” value was found to be 4.1 hrs. Further, the Km on OgLuc variant L27V is ~10 µM. The RLU at L27V02 enzyme was 9,808,880 RLU. Also, the “Ogluc (average luminescence generated by 9B8 opt)” value on OgLuc variant 9B8 opt (20 μM substrate in DUAL-GLO STOP&GLO Reagent) is 2,996,940. Moreover, the “+/− coel” value at OgLuc variant 9B8 opt (Ogluc signal relative to no coelenterazine control) is on record as 207. Further, the cell permeation entry in the data set with HEK293 cells [4] is “can permeate cells in culture”. Further, the “Viability (normalized to vehicle (DMSO) control) (%)” value in the data set on HEK293 cells [3] is listed as 89%.
`Cc1ccc(C(=O)Nc2ccc(S(=O)(=O)O)c3cc(S(=O)(=O)O)cc(S(=O)(=O)O)c23)cc1NC(=O)c1cccc(NC(=O)Nc2cccc(C(=O)Nc3cc(C(=O)Nc4ccc(S(=O)(=O)O)c5cc(S(=O)(=O)O)cc(S(=O)(=O)O)c45)ccc3C)c2)c1` [Suramin]: on OgLuc, the “inhibition of OgLuc” value is given as “inhibitor of OgLuc”.

B1: Luc2: a firefly luciferase (protein, listed as Photinus pyralis)
chain: MEDAKNIKKGPAPFYPLEDGTAGEQLHKAMKRYALVPGTIAFTDAHIEVDITYAEYFEMSVRLAEAMKRYGLNTNHRIVVCSENSLQFFMPVLGALFIGVAVAPANDIYNERELLNSMGISQPTVVFVSKKGLQKILNVQKKLPIIQKIIIMDSKTDYQGFQSMYTFVTSHLPPGFNEYDFVPESFDRDKTIALIMNSSGSTGLPKGVALPHRTACVRFSHARDPIFGNQIIPDTAILSVVPFHHGFGMFTTLGYLICGFRVVLMYRFEEELFLRSLQDYKIQSALLVPTLFSFFAKSTLIDKYDLSNLHEIASGGAPLSKEVGEAVAKRFHLPGIRQGYGLTETTSAILITPEGDDKPGAVGKVVPFFEAKVVDLDTGKTLGVNQRGELCVRGPMIMSGYVNNPEATNALIDKDGWLHSGDIAYWDEDEHFFIVDRLKSLIKYKGYQVAPAELESILLQHPNIFDAGVAGLPDDDAGELPAAVVVLEHGKTMTEKEIVDYVASQVTTAKKLRGGVVFVDEVPKGLTGKLDARKIREILIKAKKGGKIAV
Consider B1, for which the “luminescence relative to hRL” value in the data set on HEK293 cells [5] was “approximately 14 fold”.
